From patent US20230272357A1, “METHODS OF GENOME EDITING INCLUDING CONTROLLED OPENING OF CHROMATIN” (Wisconsin Alumni Research Foundation, priority 2021, published 2023)
Entries after “also recorded” stand apart in the source; their conditions may differ.

Assays:
Type in all cases: cell-based, human
HIST1H2BJ-GFP locus = test: CRISPR-Cas9 gene editing efficiency by flow cytometry (GFP- cells)
Description: SpyCas9 RNP preparation: RNPs were produced by complexing a two-component gRNA to SpyCas9. In brief, tracr-RNA and crRNA were ordered from IDT, suspended in nuclease-free duplex buffer at 100 μM, and stored in single-use aliquots at −20° C. tracrRNA and crRNA were thawed, and 0.0625 μL of each component was mixed 1:1 by volume and annealed by incubation at room temperature for 5 minutes to form a 50 μM sgRNA solution for each well of a 96 well plate. Recombinant sNLS-SpCas9-sNLS Cas9 (Aldevron, 10 mg/mL) was added to the complexed gRNA at a 1:1 molar ratio (1000 ng/well, Total 0.1 μL) and incubated for 5 minutes at room temperature to form RNP.
RNP delivery: iPSCs were singularized using Accutase™ and counted using a Countess® II FL Automated Cell Counter (Thermo Fisher Scientific) with 0.4% Trypan Blue viability stain (Thermo Fisher Scientific). iPSCs were then seeded at 15,000 cells/well on 96 well glass bottom plates (Cellvis) in mTeSR1 (WiCell) and 10 μM ROCK inhibitor (Y27632, Selleckchem), two days before lipofection or electroporation. On the following day, iPSCs were treated with TSA (0-200 ng/mL) for 16-24 hours. iPSC lipofections were performed using 0.5 μL Lipofectamine Stem Cell Reagent/well (1000 ng Cas9/well and sgRNA at 1:1 molar ratio). Cells remained undisturbed for 48 hours and were then passaged 1:4 using ReLeSR™ solution followed by daily mTeSR1 media changes for 4 additional days before downstream analysis.
Flow cytometry and fluorescence activated cell sorting: Flow cytometry was performed on singularized iPSCs using Attune™ Nxt flow cytometer (ThermoFisher Scientific) and analyzed using the FlowJo Software. Ghost Dye™ Red 780, ATTO 550, and GFP fluorescence were detected using 780/60, 585/16, and 530/30 filters in […] positions, respectively. Gates were established by running singularized untransfected iPSCs. The percentage of viable cells was calculated as the ratio of Ghost Dye™ Red 780-cells to the total number of single cells. Transfection efficiency was calculated as the percentage of ATTO 550+ cells to the total number of viable cells on day 2 post-transfection. Gene editing efficiency was calculated as the percentage of GFP-cells to the total number of viable cells on day 6 post-transfection. For the sorting experiments, iPSCs were singularized 6 days post-transfection using Accutase™, washed with PBS+20 μM ROCK inhibitor, centrifuged at 300 g for 5 minutes. Ghost Dye™ Red 780 viability dye (Tonbo Biosciences) was then added at 1:1000 concentration for 20 minutes at room temperature. Cells were washed again with PBS+20 μM ROCK inhibitor, spun down at 300 g for 5 minutes, and resuspended in 300 μL of FACS buffer (PBS+2% BSA+20 μM ROCK inhibitor). GFP-cells were then sorted into tubes containing mTeSR1+20 μM ROCK inhibitor, and seeded onto Matrigel®-coated 6 well polystyrene plates at 100 cells/well to obtain single-cell iPSC clones.
A simple, yet robust, workflow has been developed to introduce mutations in iPSCs without extensive use of deep sequencing (FIG. 1A). A mono-allelic mEGFP tagged HIST1H2BJWTC-11 human iPSC line (tag at C-terminus) was used as it provides two-fold advantages. […] Second, these iPSCs enable in situ live imaging of their cell nuclei to monitor chromatin changes during the process of CRISPR-Cas9 gene editing. An Alt-R® CRISPR-Cas9 2-part single guide RNA (sgRNA) system (IDT) was employed, which consists of 1) crRNA sequence to target the mEGFP locus in iPSCs (FIG. 1B), and 2) ATTO™ 550 fluorescent dye labelled tracrRNA that binds to Cas9. A range of TSA concentrations (0-200 ng/mL) were tested on iPSCs to determine the effect of TSA on cell viability. […] TSA concentrations of 0, 3.13, 6.25, and 12.5 ng/mL for further studies. Next, a range of TSA treatment durations (0-24 hours) were assessed and two methods for delivery for the Cas9 RNP complex (lipofection and electroporation) were also assessed to determine the optimal conditions for gene editing. […]

edited iPSC clones = test: G-banded karyotyping of edited iPSC clones; settings: 6.25 ng/mL TSA
Description: Karyotyping: Cells cultured for at least 5 passages were grown to 60-80% confluence and shipped for karyotype analysis to WiCell Research Institute, Madison, Wis. G-banded karyotyping was performed using standard cytogenetic protocols. Metaphase preparations were digitally captured with Applied Spectral Imaging software and hardware. For each cell line, 20 GTL-banded metaphases were counted, of which a minimum of 5 were analyzed and karyotyped. Results were reported in accordance with guidelines established by the International System for Cytogenetic Nomenclature 2016.

iPSCs [1] = test: Single-cell ATAC sequencing, local chromatin accessibility; settings: upon TSA treatment, data not shown
Description: Briefly, 1,50,000 cells were added to a 2 mL microcentrifuge tube and centrifuged at 300 g for 45 min at 4° C. The supernatant was removed without disrupting the cell pellet, and 100 μL chilled Lysis Buffer (10 mM Tris-HCl (pH 7.4), 10 mM NaCl, 3 mM MgCl2, 0.1% Tween-20, 0.1% Nonidet® P40 Substitute, 0.01% digitonin and 1% BSA) was added and mixed 10 times. The microcentrifuge tube was then incubated on ice for 5 min. Following lysis, 1 ml chilled Wash Buffer (10 mM Tris-HCl (pH 7.4), 10 mM NaCl, 3 mM MgCl2, 0.1% Tween-20 and 1% BSA) was added and the resulting solution was mixed 5 times. Nuclei were centrifuged at 500 g for 5 min at 4° C. and the supernatant was removed without disrupting the nuclei pellet. Nuclei were resuspended in chilled Diluted Nuclei Buffer (10× Genomics; 2000153) at approximately 6,000 nuclei per μL. The resulting nuclei concentration was then determined with a Countess® II FL Automated Cell Counter using trypan blue inclusion. Nuclei were then immediately used to generate scATAC-seq libraries according to the Chromium Single Cell ATAC Reagent Kits User Guide v1.1 (10× Genomics; 000209 Rev D). Libraries were sequenced using the Illumina NovaSeq 6000 system using S1 flow cell and target depth of 30k-37k reads/nuclei. FASTQ files were aligned with Cellranger ATAC 2.0 to custom reference Human GRCh38 genome. […]

iPSCs [2] = test: iPSC morphology during long-term culture of edited cells; settings: long-term culture of the edited cells, 6.25 ng/mL TSA

CC(/C=C/C(=O)NO)=C\[C@@H](C)C(=O)c1ccc(N(C)C)cc1 [TSA, Trichostatin A]
Gene editing efficiency (% GFP- cells/viable cells) upon TSA treatment (HIST1H2BJ-GFP locus; TSA 0-12.5 ng/mL, FIG. 1D): increases
Increase in gene editing efficiency (% GFP- cells/viable cells) (HIST1H2BJ-GFP locus; TSA 6.25 ng/mL, day 6 after Cas9 RNP delivery): 2-3 fold
Gene editing efficiency on additional increase of TSA concentration (HIST1H2BJ-GFP locus; TSA 12.5 ng/mL vs 6.25 ng/mL): did not increase the editing efficiency further
Increase in gene editing efficiency of iPSCs (HIST1H2BJ-GFP locus; chromatin decondensation via TSA, summary statement): 2-3 fold
Relation between gene editing efficiency (% GFP- cells/viable cells) and dose of TSA (HIST1H2BJ-GFP locus; concentrations up to 6.25 ng/mL, day 6): positive correlation
TSA treatment duration yielding the highest gene editing efficiencies (HIST1H2BJ-GFP locus; durations 0-24 hours assessed, data not shown): 20 h
Karyotype abnormality in one clone (#5) (edited iPSC clones; FIG. 4E, known recurrent duplication in pluripotent stem cell cultures): interstitial duplication in the long (q) arm of chromosome 20 in five of the twenty cells examined
Karyotype of edited iPSC clones (edited iPSC clones; five clones, HIST1H2BJ-GFP locus): no genomic abnormalities in four of the five clones; also recorded: normal karyotype
Local chromatin accessibility at the off-target sites (iPSCs [1]): no significant increase
Local chromatin accessibility at the on-target sites (iPSCs [1]): increase
iPSC morphology (iPSCs [2]): no changes
